Results on twelve molecules are retold here after patent EP4678750A1 (priority 2023, dated 2024).

Series [1] relates to replicon RNA transcribed from HKU1. It is filed as cell-based, Embecovirus.
In series [2] the test system is replicon RNA transcribed from MERVR. It is filed as cell-based, MERS-CoV.
The test system of series [3] is replicon RNA transcribed from SC2R. The class given is cell-based, SARS-CoV-2.
Series [4] relates to replicon RNA transcribed from SCVR. It is filed as cell-based, SARS-CoV-1.
The test system of series [5] is replicon RNA transcribed from NOBEVR. Nature of the series: microbe, parasite or virus in culture. The class given is cell-based, Nobecovirus.
Series [6] relates to HCV replicon RNA. Description: HCV subgenomic replicon replication, Renilla luciferase activity. The class given is cell-based, genotype 1b HCV (1B-4 strain). To be noted: Hepatitis C virus; 72 hours, RL activity, FIG. 15B; read-out: EC50, inhibition of the replication of HCV replicon RNA. On the technique in general: Replicon systems follow genome replication, usually without infectious particles.

Series [7] has as its system replicon RNA transcribed from SC2R. Nature of the series: microbe, parasite or virus in culture. It is filed as cell-based, SARS-CoV-2. The note with it: Severe acute respiratory syndrome coronavirus 2, 48 h, read-out: EC50, inhibition of the replication of replicon RNA transcribed from SC2R.
A short description of series [8]: Evaluation of cytotoxicity (WST-1). To be noted: human, HuH-7.6c cells.

As for `CN(C)CC#Cc1ccc(OCCCc2sc(N3CCc4cccc(C(=O)Nc5nc6ccccc6s5)c4C3)nc2C(=O)O)c(F)c1` [A-1155463], the “replication of replicon RNA transcribed from HKU1” value (shortened to “replication … from HKU1”) in series [1] is listed as “inhibited”. Moreover, in series [2], the “replication of replicon RNA transcribed from MERVR” value (from here on “replication … from MERVR”) is listed as “inhibited”. In series [3], the “concentration responsiveness of the replication level of SARS-CoV-2 replicon RNA” value was “inhibited the replication of replicon RNA transcribed from SC2R in a concentration-dependent manner” and the “replication of replicon RNA transcribed from SC2R” value (from here on “replication … from SC2R”) is given as “inhibited”. The “replication of replicon RNA transcribed from SCVR” value (shortened to “replication … from SCVR”) in series [4] is on record as “inhibited”. For the same molecule, in series [5], the “replication of replicon RNA transcribed from NOBEVR” value is given as “inhibited”.
For the molecule `Cc1c(-c2ccc(N3CCc4cccc(C(=O)Nc5nc6ccccc6s5)c4C3)nc2C(=O)O)cnn1CC12CC3CC(CC(C3)C1)C2` [A-1331852], the “replication … from HKU1” value in series [1] was “inhibited”. For the same molecule, in series [2], the “replication … from MERVR” value is “inhibited”. Moreover, the “replication … from SC2R” value in series [3] is listed as “inhibited”. Moreover, the EC50 was 0.0148 µM in series [6] and 0.00146 µM in series [7]. The “replication … from SCVR” value in series [4] is on record as “inhibited”. Further, the “replication of replicon RNA transcribed from NOBEVR” value in series [5] is listed as “inhibited”.
As for `CN(C)CC[C@H](CSc1ccccc1)Nc1ccc(S(=O)(=O)NC(=O)c2ccc(N3CCN(Cc4ccccc4-c4ccc(Cl)cc4)CC3)cc2)cc1[N+](=O)[O-]` [ABT-737], the “replication … from HKU1” value in series [1] is listed as “inhibited”. The “replication … from MERVR” value in series [2] is reported as “inhibited”. The “replication … from SC2R” value in series [3] was “inhibited”. Besides, the “replication … from SCVR” value in series [4] is recorded as “inhibited”. Besides, in series [5], the “replication of replicon RNA transcribed from NOBEVR” value is listed as “inhibited”.
For the molecule `CC(C)(C)[C@H](NC(=O)C(F)(F)F)C(=O)N1C[C@H]2[C@@H]([C@H]1C(=O)N[C@H](C#N)C[C@@H]1CCNC1=O)C2(C)C` [PF-07321332], the “replication of replicon RNA in HKU1” value in series [1] is listed as “did not inhibit”. For the same molecule, the “replication of replicon RNA in NOBEVR” value in series [5] is recorded as “did not inhibit”.
With `COc1cc2c(cc1OC)[C@@H](Cc1ccc(Oc3cc(C[C@@H]4c5cc(OC)c(OC)cc5CCN4C)ccc3O)cc1)N(C)CC2` [dauricine], the “replicon RNA replication inhibitory activity against SC2R” value in series [3] is “replicon RNA replication inhibitory activity”. In addition, in series [5], the “inhibitory activity against the replication of replicon RNA transcribed from NOBEVR” value (from here on “inhibitory activity … from NOBEVR”) is given as “strong inhibitory activity”.
Consider `COc1cc2c(cc1O)[C@@H](Cc1ccc(O)c(Oc3ccc(C[C@@H]4c5cc(OC)c(OC)cc5CCN4C)cc3)c1)N(C)CC2` [daurisoline], for which the “replicon RNA replication inhibitory activity against SC2R” value in series [3] is “replicon RNA replication inhibitory activity”. In series [5], the “inhibitory activity … from NOBEVR” value was “strong inhibitory activity”.
With `Cn1cnc(Cn2c(=O)[nH]/c(=N\c3cc4cn(C)nc4cc3Cl)n(Cc3cc(F)c(F)cc3F)c2=O)n1.O=C(O)/C=C/C(=O)O` [ensitrevir fumarate], the “replication of replicon RNA in HKU1” value in series [1] is reported as “did not inhibit”. In series [5], the “replication of replicon RNA in NOBEVR” value is reported as “did not inhibit”.
Take `NC(=O)c1nc(F)c[nH]c1=O` [favipiravir]: the “replication of replicon RNA in HKU1” value in series [1] is given as “did not inhibit”. For the same molecule, in series [5], the “replication of replicon RNA in NOBEVR” value is “did not inhibit”.
As to `CC(C)=CCC[C@]1(C)C=Cc2c(O)c3c(c(CC=C(C)C)c2O1)O[C@]12C(=C[C@@H]4C[C@H]1C(C)(C)O[C@@]2(C/C=C(/C)C(=O)O)C4=O)C3=O` [gambogic acid], the “replication … from SC2R” value in series [3] was “inhibited”.
For the molecule `CC1(C)CCC(c2ccc(Cl)cc2)=C(CN2CCN(c3ccc(C(=O)NS(=O)(=O)c4ccc(N[C@H](CCN5CCOCC5)CSc5ccccc5)c(S(=O)(=O)C(F)(F)F)c4)cc3)CC2)C1` [navitoclax], in series [1], the “replication … from HKU1” value is listed as “inhibited”. The “replication … from MERVR” value in series [2] is listed as “inhibited”. Moreover, in series [3], the “replication … from SC2R” value was “inhibited”. In addition, the “replication … from SCVR” value in series [4] was “inhibited”. The half-maximal cytotoxic concentration (CC50) at 48 h in series [8] stood at 18.6 µM. For the same molecule, in series [5], the “inhibitory activity … from NOBEVR” value was “inhibitory activity” and the “replication of replicon RNA transcribed from NOBEVR” value is “inhibited”. Also, the EC50 in series [5] (Nobecovirus, 48 h, read-out: EC50, inhibition of the replication of replicon RNA transcribed from NOBEVR) worked out at 0.28 µM.
For the molecule `CCC(CC)COC(=O)[C@H](C)N[P@](=O)(OC[C@H]1O[C@@](C#N)(c2ccc3c(N)ncnn23)[C@H](O)[C@@H]1O)Oc1ccccc1` [remdesivir], in series [1], the “replication of replicon RNA in HKU1” value is given as “did not inhibit”. Further, the “replication of replicon RNA in NOBEVR” value in series [5] is given as “did not inhibit”.
In the case of `CC1(C)CCC(CN2CCN(c3ccc(C(=O)NS(=O)(=O)c4ccc(NCC5CCOCC5)c([N+](=O)[O-])c4)c(Oc4cnc5[nH]ccc5c4)c3)CC2)=C(c2ccc(Cl)cc2)C1` [venetoclax], the “replication … from SC2R” value in series [3] is reported as “did not inhibit”.

Usually EC50 stands for the concentration needed to bring the measured effect to its halfway point. For orientation: CC50 means the concentration that lowers cell viability or growth by half. Higher therefore signals lower toxicity to the cells.
